Measured values taken from publication PMC8191813 (Antiviral research, 2017).
Like-named read-outs stand apart in the source and are kept apart here.

Tests used:
CCHFV/ZsG [1] = assay: microbe, parasite or virus in culture; format: cell-based, Crimean-Congo hemorrhagic fever virus
wild-type CCHFV = assay: microbe, parasite or virus in culture; format: cell-based, Crimean-Congo hemorrhagic fever virus; details: for EC50: Orthonairovirus haemorrhagiae, Huh-7, read-out: EC50 CCHFV
in vitro = details: human
rats = details: rat, in vivo; cited from earlier work
woodchucks = details: in vivo; cited from earlier work
CCHFV = details: read-out: previously reported EC50; cited from earlier work
CCHF = details: in vivo; cited from earlier work
CCHFV/ZsG [2] = assay: microbe, parasite or virus in culture; format: cell-based, Crimean-Congo hemorrhagic fever virus; details: Orthonairovirus haemorrhagiae, SW13, read-out: EC50 CCHFV/ZsG
[3] = Orthonairovirus haemorrhagiae, Huh-7, read-out: EC50 CCHFV/ZsG

For COc1c(C)c2c(c(O)c1C/C=C(\C)CCC(=O)O)C(=O)OC2 [Mycophenolic acid, mycophenolic acid], the “selectivity index (SI) CCHFV/ZsG” value (CCHFV/ZsG [1]) was 0.10 ± 0.01 (18), the EC50 (CCHFV/ZsG [1]; [3]) was 100 nM and the “selectivity index (SI) CCHFV” value (wild-type CCHFV) was 0.19 (9). It also gave an EC50 (wild-type CCHFV) of 190 nM and a CC50 (in vitro) of 1.78 ± 0.25 µM.

For Nc1ccn([C@@H]2O[C@H](CO)[C@@H](O)[C@H]2F)c(=O)n1 [2′-dFC, 2′-deoxy-2′-fluorocytidine], the “ZsG fluorescence in initial screen” value (CCHFV/ZsG [1]) was < 30 % of control, the “potency relative to T-705” value (CCHFV/ZsG [1]) was 17 × and the “potency relative to ribavirin” value (CCHFV/ZsG [1]) was 200 ×. For the same molecule, the “selectivity index (SI) CCHFV/ZsG” value (CCHFV/ZsG [1]) was 0.061 ± 0.018 (> 820), the EC50 (CCHFV/ZsG [1]; [3]) was 61 nM and the “CCHFV titer reduction compared to DMSO only-treated control” value (wild-type CCHFV) was “approximately 2 logs”. For the same molecule, the “selectivity index (SI) CCHFV” value (wild-type CCHFV) was 0.031 (> 1613), the “virus detection at the highest concentration of compound tested” value (“virus detection” below) (wild-type CCHFV) was “no virus detected” and the EC50 (wild-type CCHFV) was 31 nM. For the same molecule, the “cytotoxicity, result in words” value (Huh7 cells) was “no cytotoxicity”, the “cytotoxicity, result in words” value (SW13 cells) was “no associated cytotoxicity” and the CC50 (in vitro) was over 50 µM. The viability (in vitro) was over 80%, the adverse clinical effects (rats) was “no adverse clinical effects” and the adverse clinical effects (woodchucks) was “no adverse clinical effects”.

In the case of NC(=O)c1nc(F)c[nH]c1=O [T-705, favipiravir], the “ZsG fluorescence in initial screen” value (CCHFV/ZsG [1]) is reported as < 30 % of control, the “selectivity index (SI) CCHFV/ZsG” value (CCHFV/ZsG [1]) is reported as 1.03 ± 0.16 (> 50) and the EC50 (CCHFV/ZsG [1]; [3]) is reported as 1030 nM. The “CCHFV titer reduction compared to DMSO only-treated control” value (wild-type CCHFV) was “approximately 2 logs”, the “selectivity index (SI) CCHFV” value (wild-type CCHFV) was 0.88 (> 57) and the “virus detection” value (wild-type CCHFV) was “no virus detected”. The EC50 (wild-type CCHFV) was 880 nM, the EC50 (CCHFV) was 7 µM and the “efficacy in mouse model of CCHF” value (CCHF) was “higher efficacy than ribavirin”. For the same molecule, the CC50 (in vitro) was over 50 µM and the viability (in vitro) was over 80%.

For COc1c(C)c2c(c(O)c1C/C=C(\C)CCC(=O)OCCN1CCOCC1)C(=O)OC2 [MMF, mycophenolate mofetil], the “ZsG fluorescence in initial screen” value (CCHFV/ZsG [1]) was < 30 % of control, the EC50 (CCHFV/ZsG [1]; [3]) was 390 ± 130 nM and the viability (in vitro) was over 80%.

For NC(=O)c1ncn([C@@H]2O[C@H](CO)[C@@H](O)[C@H]2O)n1 [Ribavirin, ribavirin], the “selectivity index (SI) CCHFV/ZsG” value (CCHFV/ZsG [1]) was 12.48 ± 2.61 (> 10), the EC50 (CCHFV/ZsG [1]; [3]) was 12500 ± 2600 nM and the EC50 (CCHFV/ZsG [1]; read-out: EC50 CCHFV/ZsG) was 12500 nM. For the same molecule, the EC50 (CCHFV/ZsG [2]) was 5.69 ± 0.71 µM, the “selectivity index (SI) CCHFV” value (wild-type CCHFV) was 5.69 (> 26) and the “virus detection” value (wild-type CCHFV) was “no virus detected”. For the same molecule, the EC50 (wild-type CCHFV) was 5690 nM, the EC50 (CCHFV) was 11.5 µM and the CC50 (in vitro) was over 150 µM.
